Experimental data from ChEMBL document CHEMBL3286109, “Structure-activity relationship studies of indole-based compounds as small molecule HIV-1 fusion inhibitors targeting glycoprotein 41” (J Med Chem, 2014).

Tests used:
[1] = Cytotoxicity against human TZM-bl cells assessed as inhibition of cell viability by resazurin assay; conditions: read-out: TC50 (the source's name)
[2] = Cytotoxicity against human MAGI-CCR5 cells assessed as inhibition of cell viability by MTS assay; type: cell-based; conditions: read-out: TC50 (the source's name)
[3] = Inhibition of HIV1 HXB2 gp41-mediated cell-cell fusion between viral envelope-expressing human HL2/3 cells to human TZM-bl cells by luciferase reporter assay; type: cell-based; conditions: Human immunodeficiency virus 1, HXB2, TZM-bl
[4] = test system: Human immunodeficiency virus 1; experiment: Antiviral activity against HIV-1 Ba-L infected in human MAGI-CCR5 cells assessed as inhibition of viral replication after 48 hrs by chemiluminescence assay; type: functional, organism-based; conditions: Human immunodeficiency virus 1, Ba-L, MAGI-CCR5, 48 h
[5] = test system: Human immunodeficiency virus 1; experiment: Antiviral activity against HIV-1 3B infected in human MAGI-CCR5 cells assessed as inhibition of viral replication after 48 hrs by chemiluminescence assay; type: functional, organism-based; conditions: Human immunodeficiency virus 1, 3B, MAGI-CCR5, 48 h
[6] = Binding affinity to HIV1 Envelope glycoprotein gp41 Fe(env2.0)3 using C18FL as probe by fluorescence assay; parameters: species or system Human immunodeficiency virus 1

Compound | CC50 [1] | CC50 [2] | EC50 [3] | EC50 [4] | EC50 [5] | Ki [6]
COc1cccc(-c2ccc3ccn(Cc4cccc(C(=O)O)c4)c3c2)c1 | > 100 µM | > 100 µM | 14 µM | 28 µM |  | 
O=C(O)c1cccc(Cn2ccc3ccc(-c4cccc(O)c4)cc32)c1 | 100 µM | 94 µM | 8 µM | 23 µM |  | 
O=C(O)c1cccc(Cn2ccc3ccc(-c4ccc5cc(Cl)ccc5n4)cc32)c1 | 50 µM | > 100 µM |  | 48 µM |  | 
COc1ccc(Cn2ccc3ccc(-c4ccc5ccn(Cc6cccc(C(=O)O)c6)c5c4)cc32)cc1 | 20 µM | 32 µM |  | 0.9 µM | 0.9 µM | 
O=C(O)c1cccc(Cn2ccc3ccc(-c4ccc5ccn(Cc6ccc(F)cc6)c5c4)cc32)c1 | > 25 µM |  | 1.1 µM | 1.6 µM |  | 1.7 µM
O=C(O)c1cccc(Cn2ccc3cc(-c4ccc5cc(Cl)ccc5n4)ccc32)c1 | 100 µM |  | 8 µM | 6 µM |  | 
COc1ccc(Cn2ccc3ccc(-c4ccc5c(ccn5Cc5cccc(C(=O)O)c5)c4)cc32)cc1 | > 100 µM | 18 µM | 7 µM | 18 µM | 19 µM | 3 µM
COc1ccc(Cn2ccc3cc(-c4ccc5ccn(Cc6cccc(C(=O)O)c6)c5c4)ccc32)cc1 | 91 µM | 24 µM | 3.5 µM | 6.9 µM | 8.3 µM | 4.2 µM
O=C(O)c1cccc(Cn2ccc3ccc(-c4ccc5ccn(Cc6cccc(C(=O)O)c6)c5c4)cc32)c1 | > 100 µM | > 100 µM | 12 µM | 58 µM | 67 µM | 0.6 µM
NC(=O)c1cccc(Cn2ccc3ccc(-c4ccc5ccn(Cc6cccc(C(=O)O)c6)c5c4)cc32)c1 | > 100 µM | > 100 µM | 6 µM | 39 µM | 51 µM | 0.8 µM
O=C(O)c1cccc(Cn2ccc3cc(-c4ccc5ccn(Cc6cccc(C(=O)O)c6)c5c4)ccc32)c1 | > 100 µM | > 100 µM | 2 µM | 20 µM | 17 µM | 0.7 µM
O=C(O)c1cccc(Cn2ccc3ccc(-c4ccc5ccn(Cc6ccccc6)c5c4)cc32)c1 | > 50 µM | > 100 µM | 2 µM | 4.4 µM | 4.6 µM | 3.5 µM
COc1cccc(Cn2ccc3ccc(-c4ccc5ccn(Cc6cccc(C(=O)O)c6)c5c4)cc32)c1 | 71 µM | 37 µM | 1 µM | 0.9 µM | 0.9 µM | 1.1 µM
COc1cc(Cn2ccc3ccc(-c4ccc5ccn(Cc6cccc(C(=O)O)c6)c5c4)cc32)cc(OC)c1 | 93 µM | 49 µM | 2.3 µM | 1.5 µM | 1.5 µM | 0.9 µM
O=C(O)c1cccc(Cn2ccc3ccc(-c4ccc5ccn(Cc6ccc(C(F)(F)F)cc6)c5c4)cc32)c1 | > 50 µM | 52 µM | 2 µM | 0.9 µM | 1 µM | 1 µM
O=C(O)c1cccc(Cn2ccc3ccc(-c4ccc5ccn(Cc6ccc(-c7ccccc7)cc6)c5c4)cc32)c1 | > 50 µM | 55 µM | 13 µM | 2.1 µM | 2 µM | 2 µM

Compound | CC50 [1] | CC50 [2] | EC50 [3] | EC50 [4] | EC50 [5] | Ki [6]
O=C(O)c1cccc(Cn2ccc3ccc(-c4ccc5ccn(Cc6ccc(COc7ccccc7)cc6)c5c4)cc32)c1 | > 100 µM | > 100 µM | 17 µM | 27 µM | 32 µM | 6.2 µM
O=C(O)c1cccc(Cn2ccc3ccc(-c4ccc5ccn(Cc6ccc(Oc7ccccc7F)cc6)c5c4)cc32)c1 | > 100 µM | > 100 µM | 8.2 µM | 5.3 µM | 5.5 µM | 9.5 µM
Cn1nnc2ccc(Cn3ccc4ccc(-c5ccc6ccn(Cc7cccc(C(=O)O)c7)c6c5)cc43)cc21 | > 100 µM | 52 µM | 2.5 µM | 6.6 µM | 9.4 µM | 1.5 µM
COc1cccc(Cn2ccc3ccc(-c4ccc5ncn(Cc6cccc(C(=O)O)c6)c5c4)cc32)c1 | > 100 µM | > 100 µM | 34 µM | 54 µM | 57 µM | 6 µM
COc1cccc(Cn2cnc3ccc(-c4ccc5ccn(Cc6cccc(C(=O)O)c6)c5c4)cc32)c1 | > 100 µM | > 100 µM | 45 µM | 56 µM | 63 µM | 4.7 µM
COc1cccc(Cn2ccc3ccc(-c4ccc5c(c4)ncn5Cc4cccc(C(=O)O)c4)cc32)c1 | > 100 µM | > 100 µM | 6 µM | 48 µM | > 100 µM | 3.8 µM
COc1cccc(Cn2cnc3cc(-c4ccc5ccn(Cc6cccc(C(=O)O)c6)c5c4)ccc32)c1 | > 100 µM | > 100 µM | 56 µM | 28 µM | 49 µM | 5.3 µM
COc1cccc(Cc2c[nH]c3cc(-c4ccc5ccn(Cc6cccc(C(=O)O)c6)c5c4)ccc23)c1 | 33 µM | 24 µM | 6 µM | 5.6 µM | 5.8 µM | 0.9 µM
COc1cccc(Cn2ccc3ccc(-c4ccc5c(Cc6cccc(C(=O)O)c6)c[nH]c5c4)cc32)c1 | 57 µM | 34 µM | 7 µM | 18 µM | 18 µM | 1.6 µM
COc1cccc(Cc2c[nH]c3cc(-c4ccc5c(Cc6cccc(C(=O)O)c6)c[nH]c5c4)ccc23)c1 | 500 µM | 12 µM | 4 µM | 5.9 µM | 6.2 µM | 0.9 µM
COC(=O)c1cccc(Cc2c[nH]c3ccc(-c4ccc5[nH]cc(Cc6cccc(C(=O)O)c6)c5c4)cc23)c1 | 99 µM | 31 µM | 2 µM | 5 µM | 4.8 µM | 1.2 µM
O=C(O)c1cccc(Cc2c[nH]c3ccc(-c4ccc5cc[nH]c5c4)cc23)c1 | 194 µM | 80 µM | 5 µM | 13 µM | 13 µM | 1.7 µM
O=C(O)c1cccc(Cc2c[nH]c3cc(-c4ccc5cc[nH]c5c4)ccc23)c1 | 290 µM | 23 µM | 6 µM | 13 µM | 14 µM | 0.6 µM
O=C(O)c1cccc(Cn2cnc3ccc(-c4ccc5cc[nH]c5c4)cc32)c1 | > 100 µM | > 100 µM | 14 µM | 41 µM | 36 µM | 11 µM
O=C(O)c1cccc(Cn2cnc3cc(-c4ccc5cc[nH]c5c4)ccc32)c1 | > 100 µM | > 100 µM | 124 µM | > 100 µM | > 100 µM | 16 µM
Cn1ccc2ccc(-c3ccc4ccn(Cc5cccc(C(=O)O)c5)c4c3)cc21 | > 50 µM | > 50 µM | 1.3 µM | 4.5 µM | 4.3 µM | 0.3 µM
